Assay results published in patent US20210284691A1, “CBX8 CHROMDOMAIN INHIBITORS AND THE USES THEREOF” (Purdue Research Foundation, priority 2019, published 2021).
Where two headings read alike, the source gives them in different places. Square brackets hold non-standard residues; d marks the D form. Peptide text beside a SMILES is read from it. * marks the point of attachment. ξ: configuration not given here. Isoxazole3carbonyl(5-Me) = Cc1cc(C(=O)*)no1; Tyr(3-Cl) = N[C@@H](Cc1ccc(O)c(Cl)c1)C(=O)O; Benzoyl(4-OPh) = O=C(c1ccc(Oc2ccccc2)cc1)*; Benzoyl(4-Ph) = O=C(c1ccc(-c2ccccc2)cc1)*; Lys(Me3) = C[N+](C)(C)CCCC[C@H](N)C(=O)O; Gly(3-thienyl) = N[C@H](C(=O)O)c1ccsc1; Lys(Et2) = CCN(CC)CCCC[C@H](N)C(=O)O; Gly(cPent) = N[C@H](C(=O)O)C1CCCC1; Gly(cPr) = N[C@H](C(=O)O)C1CC1; ξIle = CC[C@H](C)C(N)C(=O)O; NH(propargyl) = C#CCN*

Legend:
CBX8 ChD [1] = target: T1, CBX8 ChD (Homo sapiens, UniProt Q9HC52); test: Direct fluorescence polarization (FP) binding assay
T1 construct: CBX chromodomain constructs; host or cells: E. coli BL21 CodonPlus RIL
T1 sequence (Q9HC52 11-69 limits assumed): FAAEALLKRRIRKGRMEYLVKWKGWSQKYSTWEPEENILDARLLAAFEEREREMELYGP
Method: (§1) Bacterial growth was completed at 37° C. in LB media to OD600=2.0, followed by reducing the temperature to 16° C. over 30-60 min and induced with 1 mM IPTG for 16 h. Cells were collected by centrifugation at 6000 rpm for 20 min and resuspended in ChD binding buffer (20 mM Tris, pH 8, 150 mM NaCl, 0.01% Tween-20, 20 mM imidazole) with 1.0 mM PMSF. Bacteria pellets were stored at −80° C. until needed. Pellets were thawed on ice for 10 min in ChD binding buffer, and shaked at 4° C. supplemented with 100 μg/mL lysozyme, 1 mg/mL CHAPS and 1 mM PMSF, for 30 min. Cells were subsequently lysed by sonication (15 W, 30 s on, followed by 30 s off, twice, followed by 20 W for 1 min). The solubilized fraction was collected by centrifugation at 15000 rpm for 40 min at 4° C. Meanwhile, Ni-NTA Agarose resin (QIAGEN, Venlo, Netherlands) was washed with H2O and equilibrated with ChD binding buffer. The soluble fraction was incubated with the prewashed Ni-NTA agarose resin at 4° C. for 2 h. The resin was then washed 3× with ChD purification buffer (20 mM Tris, pH 8, 150 mM NaCl, 0.01% Tween-20, 1 mM PMSF). Proteins were eluted by the addition of 0.5 M imidazole to ChD purification buffer. The elution was diluted with 30% glycerol, flash frozen, and stored at −80° C. until needed. Protein purity was assessed by SDS-PAGE and concentration was determined by the Pierce 660 kit (Thermo Scientific).
Direct fluorescence polarization (FP) binding assay of PSL hits against PcG CBX ChDs. FP assays were conducted as above with slight modifications. Alkyne peptides described above were conjugated with a fluorescein group(5-/6-FAM) through copper catalyzed click reaction as previously described. The FAM-labeled peptide was kept constant at 100 nM. The CBX ChD proteins were titrated by 2-fold series dilutions in the assays. The highest protein concentrations, at which FAM-peptide was completely bound, used for each CBX in the direct binding assays depends on the binding affinity of the peptides. Assays were performed for each peptide in four replicates.

CBX8 ChD [2] = target: T1, CBX8 ChD; test: Competitive fluorescence polarization (FP) assay; type: binding
Method: as §1, with “CBX chromodomain constructs (addgene plasmid #25158 (CBX2), #25237 (CBX4), #25296 (CBX6), #25241 (CBX7) and #62514 (CBX8, provided by Cheryl Arrowsmith), Kaustov et al.) were transformed into chemically competent BL21 CodonPlus RIL E. coli cells (Stratagene, La Jolla, Calif.) as N-terminal His6-tagged proteins. Bacterial” for “Bacterial”
(§2) Competitive Fluorescence polarization (FP) assay of PSL hits against CBX6 ChD, CBX7 ChD and CBX8 ChD. FP was measured by titration of CBX ChDs to a FITC-labelled probe as previously reported (Simhadri et al.). Binding and competition FP assays were performed in black 384-well plates with optical bottoms. The protein concentrations used were selected based on the reported relative affinity of the CBX ChD protein for the FITC probes. The FITC-labeled probe was kept constant at 100 nM with 1 μM CBX6, 0.4 μM CBX7 or 4 μM CBX8 with varying amounts of peptide by 2-fold series dilutions, from 500 μM as highest peptide concentration to 0.488 μM as the lowest. Assays were performed for each peptide in four replicates.

CBX6 ChD = target: T2, CBX6 ChD (Homo sapiens, UniProt O95503); test: Competitive fluorescence polarization (FP) assay; type: binding; conditions: average of quadruplicates ± s.d.
T2 construct: CBX chromodomain constructs; host or cells: E. coli BL21 CodonPlus RIL
T2 sequence (O95503 11-69 limits assumed): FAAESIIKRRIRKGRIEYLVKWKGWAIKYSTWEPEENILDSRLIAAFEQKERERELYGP
Method: as §1, with “CBX chromodomain constructs (addgene plasmid #25158 (CBX2), #25237 (CBX4), #25296 (CBX6), #25241 (CBX7) and #62514 (CBX8, provided by Cheryl Arrowsmith), Kaustov et al.) were transformed into chemically competent BL21 CodonPlus RIL E. coli cells (Stratagene, La Jolla, Calif.) as N-terminal His6-tagged proteins. Bacterial” for “Bacterial”
as §2

CBX7 ChD = target: T3, CBX7 ChD (Homo sapiens, UniProt O95931); test: Competitive fluorescence polarization (FP) assay; type: binding; conditions: average of quadruplicates ± s.d.
T3 construct: CBX chromodomain constructs; host or cells: E. coli BL21 CodonPlus RIL
T3 sequence (O95931 11-69 limits assumed): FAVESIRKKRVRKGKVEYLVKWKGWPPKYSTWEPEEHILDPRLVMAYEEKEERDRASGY
Method: as §1, with “CBX chromodomain constructs (addgene plasmid #25158 (CBX2), #25237 (CBX4), #25296 (CBX6), #25241 (CBX7) and #62514 (CBX8, provided by Cheryl Arrowsmith), Kaustov et al.) were transformed into chemically competent BL21 CodonPlus RIL E. coli cells (Stratagene, La Jolla, Calif.) as N-terminal His6-tagged proteins. Bacterial” for “Bacterial”
as §2

[3] = test system: H3K27me3, AR, ENO2, N-Myc, CBX2 protein levels; test: Western blotting of protein expression in VCaP_NED cells; type: cell-based
Text: FIG. 12A). Neuroendocrine differentiation (NED) of prostate cancer induced by androgen deprivation. Representative pictures of LNCaP cells treated with normal media or charcoal-stripped serum (CSS) media for 6 days to induce neuroendocrine differentiation (LNCaP_NED). FIG. 12B). Transcriptional fold changes of KLK3/TMPRSS2/ENO2/CHGA were quantified normalized to control gene YWHAZ upon CSS media treatment for 6 or 9 days. FIG. 12C). Western blotting of CBX paralogs in LNCaP and LNCaP_NED cells generated from 14-day CSS treatment. FIG. 12D). Cell proliferation of LNCaP_NED following 5 days incubation with 2 or 10 μM SW2_152F. DMSO was used as negative control. FIG. 12E). LNCaP_NED cells were treated with 10 μM SW2_152F for 24 h-96 h. Cell morphology pictures were captured starting from 24 h. Average cell size were plotted at 24 h or 48 h for both DMSO group and compound treated group. FIG. 12F). LNCaP_NED cells were treated with 10 μM or 50 μM SW2_152F for 48 hours. Transcriptional fold change of genes (KLK3/TMPRSS2/AR/CBX2) were normalized to YWHAZ in LNCaP_NED cells with SW2_152F treatment or DMSO. FIG. 12G). LNCaP cells were treated with DMSO. LNCaP_NED cells were treated with DMSO, 10 μM GSK343 or 10 μM SW2_152F for 48 hours. Whole cell lysates were extracted for western blotting. FIG. 12H). LNCaP_NED cells were treated with DMSO or 10 μM SW2_152F for 4 hours before harvest. Binding of H3K27me3 and CBX2 at specific genomic sites (KLK3/TMPRSS2, e: enhancer, p: promoter) were evaluated using chromatin immunoprecipitation-qPCR. For all experiments in the figure, error bars represent SEM n=3 biological replicates, p-values were calculated using two-tailed Student's t-test, *=p<0.05, **=p<0.01, ***=p<0.001, ****=p<0.0001.
In another androgen-sensitive prostate cancer cell line, VCaP, 6 days of androgen deprivation decreases AR protein expression and increases ENO2, N-Myc, H3K27me3 and CBX2 protein expression (FIG. 12G), similar to published findings (Y. Zhang, et al., 2018). Using this NED cell line (VCaP_NED), we tested how addition of EZH2 inhibitor GSK343 or CBX2 inhibitor SW2_152F affects protein expression changes during NED.

[4] = competitive FP, average of quadruplicates ± s.d., read-out: IC50 (μM) CBX8

Method for THP1 cells: Cells were grown for 72 h before trypsinized and counted. Cell suspension was homogenized by gentle pipetting and counted using Countess II (#AMQAF1000, Life Technologies). […] At day 6, 25 percent of cells in each well were split and transferred to new wells to avoid over-confluency, and media was replaced with fresh compounds in new media. The cell viability assay was extended to 12 days, with cell counting and fresh compound replenishment at day 3, 6, 9.
Luminescence was normalized to DMSO-treated groups. The IC50 was calculated using the “log[inhibitor] vs. the normalized response-variable slope” equation in GraphPad Prism 7.

C#CCNC(=O)[C@H](CO)NC(=O)[C@H](CCCCN(CC)CC)NC(=O)C(NC(=O)[C@@H](NC(=O)c1ccc(Oc2ccccc2)cc1)C1CCCC1)[C@@H](C)CC (stereo partly drawn) [SW2_110A] ({Benzoyl(4-OPh)}-[Gly(cPent)][ξIle][Lys(Et2)]S-{NH(propargyl)})
Kd (CBX8 ChD [1]): ~800 nM
selectivity for CBX8 over all other CBX paralogs in vitro (CBX8 ChD [1]): ≥ 5 fold
IC50 (CBX8 ChD [2]): > 7 µM
IC50 (μM) CBX6 (CBX6 ChD): ND (Aggreg.)
IC50 (μM) CBX7 (CBX7 ChD): ND (Aggreg.)
inhibition of THP1 proliferation compared to DMSO (THP1 cells; 100 μM, after 12 days of treatment): ~80%
IC50 (THP1 cells; read-out: IC50 for growth inhibition of THP1 cells, 12-day treatment, CellTiter-Glo): 25 ± 1.1 µM

CCCc1cc(C)[nH]c(=O)c1CNC(=O)c1cc(-c2ccnc(N3CCN(C)CC3)c2)cc2c1cnn2C(C)C [GSK343]
CBX2 protein expression [3]: decrease in CBX2 expression
H3K27me3 levels ([3]; 10 μM, 48 hours): reduces H3K27me3 levels
AR, ENO2 and N-Myc expression ([3]; compared to DMSO): increase AR and decrease ENO2 and N-Myc expression

C#CCNC(=O)[C@H](CO)NC(=O)[C@H](CCCCN(CC)CC)NC(=O)[C@@H](NC(=O)[C@@H](NC(=O)c1ccc(Oc2ccccc2)cc1)c1ccsc1)[C@@H](C)CC [SW2-110B] ({Benzoyl(4-OPh)}-[Gly(3-thienyl)]I[Lys(Et2)]S-{NH(propargyl)})
IC50 (μM) CBX6 (CBX6 ChD): ND (Aggreg.)
IC50 (μM) CBX7 (CBX7 ChD): ND (Aggreg.)

CC[C@H](C)C(NC(=O)[C@@H](NC(=O)c1ccc(Oc2ccccc2)cc1)C1CCCC1)C(=O)N[C@@H](CCCC[N+](C)(C)C)C(=O)N[C@@H](CO)C(N)=O (stereo partly drawn) [SW2_101B] ({Benzoyl(4-OPh)}-[Gly(cPent)][ξIle][Lys(Me3)]S-NH2)
IC50 (CBX6 ChD): > 100 µM
IC50 (CBX7 ChD): > 100 µM

CC[C@H](C)C(NC(=O)[C@@H](NC(=O)c1ccc(-c2ccccc2)cc1)C1CCCC1)C(=O)N[C@@H](CCCC[N+](C)(C)C)C(=O)N[C@@H](CO)C(N)=O (stereo partly drawn) [SW2_89] ({Benzoyl(4-Ph)}-[Gly(cPent)][ξIle][Lys(Me3)]S-NH2)
IC50 (μM) CBX6 (CBX6 ChD): ND (Aggreg.)

CC[C@H](C)[C@H](NC(=O)[C@@H](NC(=O)c1ccc(Oc2ccccc2)cc1)C1CCCC1)C(=O)N[C@@H](CCCCN(CC)CC)C(=O)N[C@@H](CO)C(=O)NCc1cn(CCCCNC(=O)c2ccc3c(c2)C2(OC3=O)c3ccc(O)cc3Oc3cc(O)ccc32)nn1 [SW2_110A-FL]
selectivity for CBX8 ChD over CBX7 ChD (CBX8 ChD [1]; from Kd values): 20 fold
selectivity for CBX8 over CBX2 (CBX8 ChD [1]; from Kd values): 5 fold

CC[C@H](C)C(NC(=O)[C@@H](NC(=O)c1ccc(-c2ccccc2)cc1)C1CC1)C(=O)N[C@@H](CCCC[N+](C)(C)C)C(=O)N[C@@H](CO)C(N)=O (stereo partly drawn) [SW2_101A] ({Benzoyl(4-Ph)}-[Gly(cPr)][ξIle][Lys(Me3)]S-NH2)
IC50 (CBX8 ChD [2]; [4]): 40 ± 8.3 µM

CC[C@H](C)C(NC(=O)[C@@H](NC(=O)[C@H](Cc1ccc(O)c(Cl)c1)NC(=O)c1cc(C)on1)C1CC1)C(=O)N[C@@H](CCCC[N+](C)(C)C)C(=O)N[C@@H](CO)C(N)=O (stereo partly drawn) [SW2_90] ({Isoxazole3carbonyl(5-Me)}-[Tyr(3-Cl)][Gly(cPr)][ξIle][Lys(Me3)]S-NH2)
IC50 (CBX7 ChD): 0.82 ± 0.12 µM

C#CCNC(=O)[C@H](CO)NC(=O)[C@H](CCCCN(CC)CC)NC(=O)C(NC(=O)[C@@H](NC(=O)c1ccc(-c2ccccc2)cc1)c1ccsc1)[C@@H](C)CC (stereo partly drawn) [SW2_104B] ({Benzoyl(4-Ph)}-[Gly(3-thienyl)][ξIle][Lys(Et2)]S-{NH(propargyl)})
IC50 (CBX8 ChD [2]; [4]): > 15 µM
IC50 (μM) CBX6 (CBX6 ChD): ND (Aggreg.)
IC50 (μM) CBX7 (CBX7 ChD): ND (Aggreg.)

CC[C@H](C)C(NC(=O)[C@@H](NC(=O)c1ccc(Oc2ccccc2)cc1)C1CC1)C(=O)N[C@@H](CCCC[N+](C)(C)C)C(=O)N[C@@H](CO)C(N)=O (stereo partly drawn) [SW2_101F] ({Benzoyl(4-OPh)}-[Gly(cPr)][ξIle][Lys(Me3)]S-NH2)
IC50 (CBX8 ChD [2]; [4]): 4 ± 1.1 µM
IC50 (CBX6 ChD): > 100 µM
